System: tau protein
Experiment: Tau protein in vitro degradation assay (Western blot, Tau-13 antibody)
Format: cell-based, human
Conditions: SK-N-SH cells; 72 hours of incubation; tested at 300 nM, 100 nM, 33 nM and 11 nM; Western blot, Tau-13 antibody
Outline: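 SK-N-SH cells, seeded ≥18 h beforehand, were incubated 72 h with tau PROTACs at 1000, 300 and 100 nM or at 300, 100, 33 and 11 nM. Lysates in protease-inhibitor buffer were resolved by SDS-PAGE; tau quantified by Western blot with Tau-13 antibody recognising all human tau forms.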

Structure (SMILES)	Degradation activity* (highest amount of degradation observed at any dosage; tau protein remaining)	Degradation activity (tau protein remaining; highest amount of degradation observed at any dosage)
Cn1c2ccncc2c2ccc(-c3cnc(CCCN4CCN(CCCCCOc5ccc6c(c5)C(=O)N(C5CCC(=O)NC5=O)C6=O)CC4)c(C(F)(F)F)c3)cc21 (stereo not shown) [Compound 63, 2-(2,6-dioxopiperidin-3-yl)-5-((5-(4-(3-(5-(5-methyl-5H-pyrido[4,3-b]indol-7-yl)-3-(trifluoromethyl)pyridin-2-yl)propyl)piperazin-1-yl)pentyl)oxy)isoindoline-1,3-dione]	C (>80% tau protein remaining after 72 hours of incubation with the test compound)	–
Cn1c2ccncc2c2ccc(-c3ccc(O[C@H]4C[C@H](Oc5ccc(CCCCCOc6ccc7c(c6)C(=O)N(C6CCC(=O)NC6=O)C7=O)nc5)C4)nc3)cc21 (stereo partly shown) [Compound 95, 2-(2,6-dioxopiperidin-3-yl)-5-((5-(5-((1r,3r)-3-((5-(5-methyl-5H-pyrido[4,3-b]indol-7-yl)pyridin-2-yl)oxy)cyclobutoxy)pyridin-2-yl)pentyl)oxy)isoindoline-1,3-dione]	C (>80% tau protein remaining after 72 hours of incubation with the test compound)	–
Cc1ncsc1-c1ccc([C@H](C)NC(=O)[C@@H]2C[C@@H](O)CN2C(=O)[C@@H](NC(=O)COCCOCCOCCOCCOCCOc2ccc(-c3ccc4c(c3)[nH]c3ccncc34)cn2)C(C)(C)C)cc1 [Compound 121, (2S,4R)-1-((S)-20-((5-(5H-pyrido[4,3-b]indol-7-yl)pyridin-2-yl)oxy)-2-(tert-butyl)-4-oxo-6,9,12,15,18-pentaoxa-3-azaicosanoyl)-4-hydroxy-N—((S)-1-(4-(4-methylthiazol-5-yl)phenyl)ethyl)pyrrolidine-2-carboxamide]	B (≤80% and >50% tau protein remaining after 72 hours of incubation with the test compound)	–
Cn1c2ccncc2c2ccc(-c3ccc(O[C@H]4C[C@H](OC5CCN(c6cc(OCCOc7ccc8c(c7)C(=O)N(C7CCC(=O)NC7=O)C8=O)cnn6)CC5)C4)nc3)cc21 (stereo partly shown) [Compound 158, 2-(2,6-dioxopiperidin-3-yl)-5-(2-((6-(4-((1r,3r)-3-((5-(5-methyl-5H-pyrido[4,3-b]indol-7-yl)pyridin-2-yl)oxy)cyclobutoxy)piperidin-1-yl)pyridazin-4-yl)oxy)ethoxy)isoindoline-1,3-dione]	C (>80% tau protein remaining after 72 hours of incubation with the test compound)	–
Cn1c2ccncc2c2ccc(-c3ccc(O[C@H]4C[C@H](OCCCCCOCCC5CN(c6ccc7c(c6)C(=O)N(C6CCC(=O)NC6=O)C7=O)C5)C4)nc3)cc21 (stereo partly shown) [Compound 181, 2-(2,6-dioxopiperidin-3-yl)-5-(3-(2-((5-((1r,3r)-3-((5-(5-methyl-5H-pyrido[4,3-b]indol-7-yl)pyridin-2-yl)oxy)cyclobutoxy)pentyl)oxy)ethyl)azetidin-1-yl)isoindoline-1,3-dione]	–	B (≤80% and >50% tau protein remaining after 72 hours of incubation with the test compound)
Cn1c2ccncc2c2ccc(-c3ccc(N4CC(OCCCCCOCCCCCOc5ccc6c(c5)C(=O)N(C5CCC(=O)NC5=O)C6=O)C4)nc3)cc21 (stereo not shown) [Compound 115, 2-(2,6-dioxopiperidin-3-yl)-5-((5-((5-((1-(5-(5-methyl-5H-pyrido[4,3-b]indol-7-yl)pyridin-2-yl)azetidin-3-yl)oxy)pentyl)oxy)pentyl)oxy)isoindoline-1,3-dione]	C (>80% tau protein remaining after 72 hours of incubation with the test compound)	–
Cn1c2ccncc2c2ccc(-c3ccc(O[C@H]4C[C@H](OCCCCOCCCCCOc5ccc6c(c5)C(=O)N(C5CCC(=O)NC5=O)C6=O)C4)nc3)cc21 (stereo partly shown) [Compound 114, 2-(2,6-dioxopiperidin-3-yl)-5-((5-(4-((1r,3r)-3-((5-(5-methyl-5H-pyrido[4,3-b]indol-7-yl)pyridin-2-yl)oxy)cyclobutoxy)butoxy)pentyl)oxy)isoindoline-1,3-dione]	C (>80% tau protein remaining after 72 hours of incubation with the test compound)	–
Cn1c2ccncc2c2ccc(-c3ccc(OC4CN(C(=O)C56CC(COCCCCCOc7ccc8c(c7)C(=O)N(C7CCC(=O)NC7=O)C8=O)(C5)C6)C4)nc3)cc21 (stereo not shown) [Compound 175, 2-(2,6-dioxopiperidin-3-yl)-5-((5-((3-(3-((5-(5-methyl-5H-pyrido[4,3-b]indol-7-yl)pyridin-2-yl)oxy)azetidine-1-carbonyl)bicyclo[1.1.1]pentan-1-yl)methoxy)pentyl)oxy)isoindoline-1,3-dione]	–	C (>80% tau protein remaining after 72 hours of incubation with the test compound)
Cc1ncsc1-c1ccc([C@H](C)NC(=O)[C@@H]2C[C@@H](O)CN2C(=O)[C@@H](NC(=O)COCCOCCOCCOCCOCCOCCOc2ccc(-c3ccc4c(c3)[nH]c3ccncc34)cn2)C(C)(C)C)cc1 [Compound 122, (2S,4R)-1-((S)-23-((5-(5H-pyrido[4,3-b]indol-7-yl)pyridin-2-yl)oxy)-2-(tert-butyl)-4-oxo-6,9,12,15,18,21-hexaoxa-3-azatricosanoyl)-4-hydroxy-N—((S)-1-(4-(4-methylthiazol-5-yl)phenyl)ethyl)pyrrolidine-2-carboxamide]	C (>80% tau protein remaining after 72 hours of incubation with the test compound)	–
Cc1ncsc1-c1ccc(CNC(=O)[C@@H]2C[C@@H](O)CN2C(=O)[C@H](C(C)C)N2Cc3ccccc3C2=O)c(OCCOCCOCCOCCOCCOc2ccc(-c3ccc4c(c3)[nH]c3ccncc34)cn2)c1 [Compound 201, (2S,4R)—N-(2-((14-((5-(5H-pyrido[4,3-b]indol-7-yl)pyridin-2-yl)oxy)-3,6,9,12-tetraoxatetradecyl)oxy)-4-(4-methylthiazol-5-yl)benzyl)-4-hydroxy-1-((S)-3-methyl-2-(1-oxoisoindolin-2-yl)butanoyl)pyrrolidine-2-carboxamide]	–	C (>80% tau protein remaining after 72 hours of incubation with the test compound)
Cn1c2ccncc2c2ccc(-c3ccc(O[C@H]4C[C@H](Oc5ccc(C#CCCCOc6ccc7c(c6)C(=O)N(C6CCC(=O)NC6=O)C7=O)nc5)C4)nc3)cc21 (stereo partly shown) [Compound 94, 2-(2,6-dioxopiperidin-3-yl)-5-((5-(5-((1r,3r)-3-((5-(5-methyl-5H-pyrido[4,3-b]indol-7-yl)pyridin-2-yl)oxy)cyclobutoxy)pyridin-2-yl)pent-4-yn-1-yl)oxy)isoindoline-1,3-dione]	C (>80% tau protein remaining after 72 hours of incubation with the test compound)	–
O=C1CCC(N2C(=O)c3ccc(N4CCN(CCCO[C@H]5C[C@H](Oc6ccc(-c7ccc8c(c7)[nH]c7ccncc78)cn6)C5)CC4)cc3C2=O)C(=O)N1 (stereo partly shown) [Compound 60, 5-(4-(3-((1r,3r)-3-((5-(5H-pyrido[4,3-b]indol-7-yl)pyridin-2-yl)oxy)cyclobutoxy)propyl)piperazin-1-yl)-2-(2,6-dioxopiperidin-3-yl)isoindoline-1,3-dione]	C (>80% tau protein remaining after 72 hours of incubation with the test compound)	–
Cn1c2ccncc2c2ccc(-c3ccc(OCCCOc4ccc(C#CCOC5CN(c6ccc7c(c6)C(=O)N(C6CCC(=O)NC6=O)C7=O)C5)nc4)nc3)cc21 (stereo not shown) [Compound 167, 2-(2,6-dioxopiperidin-3-yl)-5-(3-((3-(5-(3-((5-(5-methyl-5H-pyrido[4,3-b]indol-7-yl)pyridin-2-yl)oxy)propoxy)pyridin-2-yl)prop-2-yn-1-yl)oxy)azetidin-1-yl)isoindoline-1,3-dione]	C (>80% tau protein remaining after 72 hours of incubation with the test compound)	–
Cc1ncsc1-c1ccc(CNC(=O)[C@@H]2C[C@@H](O)CN2C(=O)[C@H](C(C)C)N2Cc3ccccc3C2=O)c(OCCOCCOc2ccc(-c3ccc4c(c3)[nH]c3ccncc34)cn2)c1 [Compound 186, (2S,4R)—N-(2-(2-(2-((5-(5H-pyrido[4,3-b]indol-7-yl)pyridin-2-yl)oxy)ethoxy)ethoxy)-4-(4-methylthiazol-5-yl)benzyl)-4-hydroxy-1-((S)-3-methyl-2-(1-oxoisoindolin-2-yl)butanoyl)pyrrolidine-2-carboxamide]	–	B (≤80% and >50% tau protein remaining after 72 hours of incubation with the test compound)

Same assay, conditions: SK-N-SH cells; 72 hours of incubation; tested at 1000 nM, 300 nM and 100 nM

Structure (SMILES)	Activity* (highest amount of degradation observed at any dosage, as tau protein remaining)
Cc1ncsc1-c1ccc(CNC(=O)[C@@H]2C[C@@H](O)CN2C(=O)[C@@H](NC(=O)COCCOCCOCCN2CCN(c3ccn4c(n3)nc3ccccc34)CC2)C(C)(C)C)cc1 [Compound 7, (2S,4R)-1-((S)-14-(4-(benzo[4,5]imidazo[1,2-a]pyrimidin-2-yl)piperazin-1-yl)-2-(tert-butyl)-4-oxo-6,9,12-trioxa-3-azatetradecanoyl)-4-hydroxy-N-(4-(4-methylthiazol-5-yl)benzyl)pyrrolidine-2-carboxamide]	C (>80% tau protein remaining after 72 hours of incubation with the test compound)
Cc1ncsc1-c1ccc(CNC(=O)[C@@H]2C[C@@H](O)CN2C(=O)[C@@H](NC(=O)COCCOCCOc2ccc(-c3ccc4c(c3)[nH]c3ccncc34)cn2)C(C)(C)C)cc1 [Compound 5, (2S,4R)-1-((S)-2-(2-(2-(2-(5-(5H-pyrido[4,3-b]indol-7-yl)pyridin-2-yloxy)ethoxy)ethoxy)acetamido)-3,3-dimethylbutanoyl)-4-hydroxy-N-(4-(4-methylthiazol-5-yl)benzyl)pyrrolidine-2-carboxamide]	C (>80% tau protein remaining after 72 hours of incubation with the test compound)

Reference: patent US11458123B2 (Arvinas, Inc., priority 2016, dated 2022)
